Like-named read-outs stand apart in the source and are kept apart here. Square brackets hold non-standard residues; d marks the D form. Ends that are not written are not given here. Peptide text beside a SMILES is read from it. 2Thi = N[C@@H](Cc1cccs1)C(=O)O A value given as a limit tells only on which side of the number the result lay.

This is an account of results in patent publication US20250122257A1, “USE OF KININ OR DERIVATIVE THEREOF IN TREATING VCI, PSCI, OR CSVD” (ZonHon Biopharma Institute, Inc., priority 2022, published 2025).

For series [1], the system named is B2 receptor downstream signals p-CREB and p-ERK1/2. The series is described as follows: Phosphorylation of downstream ERK1/2 and CREB by WB in CHO-K1 (B2R+) cells. As to conditions: FIG. 3, WB. The series is classed as cell-based. As to the method: (§1) In vitro B2-receptor affinity activity and activity of activating downstream signaling pathway of PEG conjugates of lysyl bradykinin and its variants were tested, as in Example 3.

For the next series, the target named is T1, B2 receptor (Homo sapiens, UniProt P30411).
T1 construct: expressed in transfected cells
T1 sequence (P30411 1-391): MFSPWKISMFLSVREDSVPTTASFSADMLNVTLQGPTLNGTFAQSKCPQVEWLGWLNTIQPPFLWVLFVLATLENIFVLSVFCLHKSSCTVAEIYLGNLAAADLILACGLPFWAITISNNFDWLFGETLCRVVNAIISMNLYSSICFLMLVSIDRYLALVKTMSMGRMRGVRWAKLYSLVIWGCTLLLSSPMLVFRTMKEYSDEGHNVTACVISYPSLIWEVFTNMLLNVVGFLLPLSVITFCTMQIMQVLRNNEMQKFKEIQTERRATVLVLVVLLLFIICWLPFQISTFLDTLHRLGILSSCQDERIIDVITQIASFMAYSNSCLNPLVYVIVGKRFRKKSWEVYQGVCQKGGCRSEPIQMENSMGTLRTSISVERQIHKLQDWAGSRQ
The series is described as follows: Affinity activity to B2 receptor, reporter gene assay in B2-NFAT-CHO-K1 cells. In kind it is cell-based. As to conditions: relative activity calculated from EC50, 5 hours. As to the method: The cell line B2-NFAT-CHO-K1 stably transfected with B2 receptor reporter gene was constructed based on CHO-K1 host cells and the cell library was constructed. The B2-NFAT-CHO-K1 cell library was used to evaluate the binding activity of lysyl bradykinin/bradykinin or its variants or PEG modified products to B2 receptor in vitro.
Detection methods: The cells were cultured in 96-well plates at 5×10^4cells/well, 37° C., 5% CO2 for 16-20 hours, and then gradient diluted standard and test solutions were added. After 5 hours, added Bio-Lite luciferase detection reagent and the chemiluminescence intensity was measured. GraphPad was used to make four-parameter equation curve and calculate the relative activity according to the EC50 value.
as §1

For series [2] the following is noted: in vivo, cited from earlier work.

Consider “Lys-BKm13-SPA5K: Lys-BKm13 modified with SPA5K PEG (CRRPPG[2Thi]SPFR; also: modified with SPA5K PEG, site not given here)”, for which the “Activity of PEG conjugates in activating phosphorylation of ERK1/2 and CREB (in words)” value in series [1] is reported as “highest activity among different peptide variants”.
For “Lys-BKm09: {THI}SPFR, SEQ ID NO 10 ([2Thi]SPFR)”, in the series with B2 receptor, the “Relative affinity activity to B2 receptor” value (shortened to “Relative affinity activity”) is given as 0%.
With `NC(N)=NCCC[C@H](NC(=O)[C@H](Cc1ccccc1)NC(=O)[C@@H]1CCCN1C(=O)[C@H](CO)NC(=O)[C@H](Cc1ccccc1)NC(=O)CNC(=O)[C@@H]1CCCN1C(=O)[C@@H]1CCCN1C(=O)[C@@H](N)CCCN=C(N)N)C(=O)O` [BK, bradykinin] (H-RPPGFSPFR-OH), in series [2] (reported), the Half-life entry was “only seconds”.
For `NCCCC[C@H](N)C(=O)N[C@@H](CCCN=C(N)N)C(=O)N1CCC[C@H]1C(=O)N1CCC[C@H]1C(=O)NCC(=O)N[C@@H](Cc1ccccc1)C(=O)N[C@@H](CO)C(=O)N1CCC[C@H]1C(=O)N[C@@H](Cc1ccccc1)C(=O)N[C@@H](CCCN=C(N)N)C(=O)O` [Lys-BK, lysyl bradykinin], in series [2], the Half-life result is on record as “only seconds”.
Regarding Lys-BKm10: SPFR, SEQ ID NO 11, the “Relative affinity activity” value with B2 receptor was 0%.
Consider “Lys-BKm08: PG{THI}SPFR, SEQ ID NO 9 (PG[2Thi]SPFR)”, for which the “Relative affinity activity” value with B2 receptor is <10%.
